Results from ChEMBL document CHEMBL1201862, “PubChem BioAssay data set” (2004).
Activity calls are given as the source filed them.

Key:
[1] = target: T1, Aryl hydrocarbon receptor (Homo sapiens, UniProt P35869); assay: Luminescence-based cell-based high throughput dose response assay for activators of the Aryl Hydrocarbon Receptor (AHR). [Related pubchem assays: 2796 (Primary screen (AHR activators in singlicate)), 2845 (Confirmation screen (AHR activators in triplicate)), 434939 (Counterscreen (PXR activators in triplicate)), 2804 (Summary (AHR activators))]; assay type: ADME
T1 sequence (P35869 whole entry): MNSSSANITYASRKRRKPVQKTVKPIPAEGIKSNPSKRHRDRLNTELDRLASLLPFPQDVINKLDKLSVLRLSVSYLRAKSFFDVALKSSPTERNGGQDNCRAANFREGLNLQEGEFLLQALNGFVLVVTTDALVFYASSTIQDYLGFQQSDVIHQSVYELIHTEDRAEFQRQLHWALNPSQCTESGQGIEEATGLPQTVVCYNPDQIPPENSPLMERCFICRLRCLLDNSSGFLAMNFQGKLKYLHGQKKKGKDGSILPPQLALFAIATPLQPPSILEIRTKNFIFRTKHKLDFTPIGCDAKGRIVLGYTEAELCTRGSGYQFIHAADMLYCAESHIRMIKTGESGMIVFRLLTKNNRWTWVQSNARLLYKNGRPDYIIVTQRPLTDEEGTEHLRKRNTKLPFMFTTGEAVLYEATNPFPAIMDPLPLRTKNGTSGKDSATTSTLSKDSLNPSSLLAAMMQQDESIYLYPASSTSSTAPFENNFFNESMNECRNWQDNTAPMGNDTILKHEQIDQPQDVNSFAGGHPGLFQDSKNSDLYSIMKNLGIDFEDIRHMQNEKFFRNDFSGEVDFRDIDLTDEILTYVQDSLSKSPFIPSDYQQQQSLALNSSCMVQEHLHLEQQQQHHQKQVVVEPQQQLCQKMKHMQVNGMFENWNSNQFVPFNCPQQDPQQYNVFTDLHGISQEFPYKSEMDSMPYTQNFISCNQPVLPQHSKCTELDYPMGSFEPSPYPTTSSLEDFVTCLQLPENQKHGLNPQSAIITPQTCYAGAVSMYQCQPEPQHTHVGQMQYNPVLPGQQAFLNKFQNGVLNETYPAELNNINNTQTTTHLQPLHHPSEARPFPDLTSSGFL

Vero = assay: host cell cytotoxicity of antiviral hits, dose response, cytotoxicity control for West Nile virus antiviral project, secondary assay (AID 1650); assay type: functional; conditions: Chlorocebus sabaeus
[2] = target: Peroxisome proliferator-activated receptor gamma/Nuclear receptor coactivator 1 (Homo sapiens, UniProt P37231); assay type: functional;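 note: agonist potency as compounds enhance coactivator SRC-1 recruitment to PPARgamma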
Peroxisome proliferator-activated receptor gamma/Nuclear receptor coactivator 1, sequence (P37231 whole entry): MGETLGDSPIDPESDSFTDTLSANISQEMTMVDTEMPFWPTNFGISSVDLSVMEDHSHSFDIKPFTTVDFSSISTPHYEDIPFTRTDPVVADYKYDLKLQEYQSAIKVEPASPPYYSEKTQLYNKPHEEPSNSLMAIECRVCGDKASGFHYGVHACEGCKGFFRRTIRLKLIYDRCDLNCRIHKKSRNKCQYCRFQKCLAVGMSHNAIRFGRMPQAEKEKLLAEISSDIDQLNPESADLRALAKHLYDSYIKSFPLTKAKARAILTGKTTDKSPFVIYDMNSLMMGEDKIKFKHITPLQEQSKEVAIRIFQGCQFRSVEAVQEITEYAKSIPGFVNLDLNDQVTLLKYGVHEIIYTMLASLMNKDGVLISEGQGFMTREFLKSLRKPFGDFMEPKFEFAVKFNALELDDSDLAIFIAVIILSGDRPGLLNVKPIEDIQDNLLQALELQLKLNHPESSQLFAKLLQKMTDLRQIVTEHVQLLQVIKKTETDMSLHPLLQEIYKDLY
Peroxisome proliferator-activated receptor gamma/Nuclear receptor coactivator 1, sequence (Q15788 whole entry, further chain): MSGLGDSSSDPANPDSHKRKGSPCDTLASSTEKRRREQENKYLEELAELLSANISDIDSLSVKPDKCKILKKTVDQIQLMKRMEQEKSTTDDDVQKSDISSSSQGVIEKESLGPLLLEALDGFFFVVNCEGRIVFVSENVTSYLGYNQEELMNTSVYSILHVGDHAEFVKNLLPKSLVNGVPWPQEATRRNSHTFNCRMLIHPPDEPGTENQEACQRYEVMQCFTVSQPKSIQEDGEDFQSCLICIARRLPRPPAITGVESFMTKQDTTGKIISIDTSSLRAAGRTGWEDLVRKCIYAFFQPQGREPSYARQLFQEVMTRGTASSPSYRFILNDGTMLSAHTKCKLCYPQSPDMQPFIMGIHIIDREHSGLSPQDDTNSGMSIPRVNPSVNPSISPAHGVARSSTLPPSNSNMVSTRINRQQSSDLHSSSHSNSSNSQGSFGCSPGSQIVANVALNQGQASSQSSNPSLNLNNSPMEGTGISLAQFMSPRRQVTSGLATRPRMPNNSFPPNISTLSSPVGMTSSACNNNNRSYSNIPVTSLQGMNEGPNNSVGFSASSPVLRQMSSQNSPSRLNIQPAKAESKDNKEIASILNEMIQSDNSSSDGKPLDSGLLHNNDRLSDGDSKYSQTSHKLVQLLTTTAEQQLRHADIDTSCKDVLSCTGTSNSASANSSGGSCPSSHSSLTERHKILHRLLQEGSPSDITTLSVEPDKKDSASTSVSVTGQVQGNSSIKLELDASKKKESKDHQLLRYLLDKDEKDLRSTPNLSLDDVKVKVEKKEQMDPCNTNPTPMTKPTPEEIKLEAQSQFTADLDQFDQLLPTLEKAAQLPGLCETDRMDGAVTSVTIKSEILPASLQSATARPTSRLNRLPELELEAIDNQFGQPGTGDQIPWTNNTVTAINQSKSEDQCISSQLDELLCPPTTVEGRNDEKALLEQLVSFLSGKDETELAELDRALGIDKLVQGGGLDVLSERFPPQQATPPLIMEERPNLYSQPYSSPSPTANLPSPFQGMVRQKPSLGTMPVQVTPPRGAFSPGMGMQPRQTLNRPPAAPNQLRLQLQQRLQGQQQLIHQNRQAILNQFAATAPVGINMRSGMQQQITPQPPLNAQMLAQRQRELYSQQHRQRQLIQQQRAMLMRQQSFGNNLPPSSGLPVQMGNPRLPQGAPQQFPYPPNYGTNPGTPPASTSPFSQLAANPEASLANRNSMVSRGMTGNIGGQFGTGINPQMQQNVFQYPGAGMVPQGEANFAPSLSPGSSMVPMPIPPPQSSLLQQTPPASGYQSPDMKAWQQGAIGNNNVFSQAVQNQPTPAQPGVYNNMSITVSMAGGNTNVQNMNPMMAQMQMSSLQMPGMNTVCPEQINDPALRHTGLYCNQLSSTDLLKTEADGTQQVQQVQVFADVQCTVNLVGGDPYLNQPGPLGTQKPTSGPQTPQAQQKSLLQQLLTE

[3] = target: Peroxisome proliferator-activated receptor gamma/Nuclear receptor coactivator 3 (Homo sapiens, UniProt P37231); assay type: functional;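 note: agonist potency for raising coactivator recruitment to the receptor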
Peroxisome proliferator-activated receptor gamma/Nuclear receptor coactivator 3, sequence (P37231 whole entry): as the sequence (P37231 whole entry) above
Peroxisome proliferator-activated receptor gamma/Nuclear receptor coactivator 3, sequence (Q9Y6Q9 whole entry, further chain): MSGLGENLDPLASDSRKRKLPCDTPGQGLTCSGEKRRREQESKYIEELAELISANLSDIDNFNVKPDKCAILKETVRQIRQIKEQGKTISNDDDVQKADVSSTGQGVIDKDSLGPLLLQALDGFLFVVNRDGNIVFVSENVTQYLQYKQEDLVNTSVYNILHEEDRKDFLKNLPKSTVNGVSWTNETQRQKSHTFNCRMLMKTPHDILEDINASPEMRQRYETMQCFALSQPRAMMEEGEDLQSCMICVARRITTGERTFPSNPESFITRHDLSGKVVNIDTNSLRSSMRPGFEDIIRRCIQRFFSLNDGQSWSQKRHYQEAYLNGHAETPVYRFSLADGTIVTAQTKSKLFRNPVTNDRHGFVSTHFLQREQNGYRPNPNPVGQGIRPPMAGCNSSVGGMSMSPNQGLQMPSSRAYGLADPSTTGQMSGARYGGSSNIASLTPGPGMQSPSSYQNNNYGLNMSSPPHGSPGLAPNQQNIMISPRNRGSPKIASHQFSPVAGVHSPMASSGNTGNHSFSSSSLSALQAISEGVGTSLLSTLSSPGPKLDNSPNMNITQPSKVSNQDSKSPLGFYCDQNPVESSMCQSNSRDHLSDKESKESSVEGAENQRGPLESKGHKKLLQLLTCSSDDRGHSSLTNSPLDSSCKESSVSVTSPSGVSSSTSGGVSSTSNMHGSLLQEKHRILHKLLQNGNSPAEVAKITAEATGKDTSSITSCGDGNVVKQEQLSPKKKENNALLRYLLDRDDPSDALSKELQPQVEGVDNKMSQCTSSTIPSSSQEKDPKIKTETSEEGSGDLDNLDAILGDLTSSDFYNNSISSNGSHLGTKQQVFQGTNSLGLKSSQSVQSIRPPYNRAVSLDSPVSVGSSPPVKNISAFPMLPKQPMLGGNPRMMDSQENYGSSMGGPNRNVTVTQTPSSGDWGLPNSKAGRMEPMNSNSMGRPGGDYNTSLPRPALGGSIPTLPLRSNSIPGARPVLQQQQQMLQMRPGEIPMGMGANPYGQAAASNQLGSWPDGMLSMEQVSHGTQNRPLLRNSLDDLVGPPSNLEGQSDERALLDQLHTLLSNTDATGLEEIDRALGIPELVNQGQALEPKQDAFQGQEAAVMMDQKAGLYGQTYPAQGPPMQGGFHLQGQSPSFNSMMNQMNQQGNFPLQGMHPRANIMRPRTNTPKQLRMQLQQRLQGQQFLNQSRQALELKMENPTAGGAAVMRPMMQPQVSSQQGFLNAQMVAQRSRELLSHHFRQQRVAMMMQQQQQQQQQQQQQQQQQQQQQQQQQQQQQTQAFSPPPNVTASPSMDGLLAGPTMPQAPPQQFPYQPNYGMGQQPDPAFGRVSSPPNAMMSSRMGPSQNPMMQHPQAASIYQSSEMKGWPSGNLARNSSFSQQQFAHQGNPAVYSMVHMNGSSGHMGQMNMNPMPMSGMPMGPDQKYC

[4] = target: Peroxisome proliferator-activated receptor gamma/Nuclear receptor coactivator 2 (Homo sapiens, UniProt P37231); assay type: functional;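 note: agonist potency for raising coactivator recruitment to the receptor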
[5] = M. tuberculosis H37Rv growth inhibitors, H37Rv strain (AID 1626); assay type: functional
[6] = cytotoxicity in HPDE-C7 cells, cell-based, fluorescence, HTS (AID 430); assay type: functional; conditions: Homo sapiens
[7] = cytotoxicity in KRAS-transformed pancreatic duct cells, primary screen, cell-based, fluorescence, HTS (AID 431); assay type: functional; conditions: Homo sapiens;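 note: cell line used: HPDE-C7K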
[8] = target: T2, Neuropeptide Y receptor type 2 (Homo sapiens, UniProt P49146); assay type: functional, cell-based;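 note: HEK293 cells expressing the receptor and a CNG channel; stimulus was NPY near EC95 followed by isoproterenol to raise cAMP; antagonist potency measured as restoring cAMP signal that NPY suppresses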
T2 sequence (P49146 whole entry): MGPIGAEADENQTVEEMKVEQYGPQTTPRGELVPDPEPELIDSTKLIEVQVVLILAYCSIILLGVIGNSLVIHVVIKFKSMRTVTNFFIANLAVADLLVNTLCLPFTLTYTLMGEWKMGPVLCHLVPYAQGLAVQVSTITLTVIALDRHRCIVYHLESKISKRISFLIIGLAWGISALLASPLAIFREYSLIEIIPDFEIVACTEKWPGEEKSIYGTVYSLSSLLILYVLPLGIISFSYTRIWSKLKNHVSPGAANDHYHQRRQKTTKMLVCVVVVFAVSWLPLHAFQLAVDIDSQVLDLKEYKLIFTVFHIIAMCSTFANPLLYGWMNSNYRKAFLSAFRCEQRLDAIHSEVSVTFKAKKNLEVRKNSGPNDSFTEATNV

[9] = target: T3, Neuropeptide Y receptor type 1 (Homo sapiens, UniProt P25929); assay type: functional;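 note: HEK293 cells with a CNG channel challenged with NPY then isoproterenol; potency as antagonist that reverses NPY suppression of cAMP signal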
T3 sequence (P25929 whole entry): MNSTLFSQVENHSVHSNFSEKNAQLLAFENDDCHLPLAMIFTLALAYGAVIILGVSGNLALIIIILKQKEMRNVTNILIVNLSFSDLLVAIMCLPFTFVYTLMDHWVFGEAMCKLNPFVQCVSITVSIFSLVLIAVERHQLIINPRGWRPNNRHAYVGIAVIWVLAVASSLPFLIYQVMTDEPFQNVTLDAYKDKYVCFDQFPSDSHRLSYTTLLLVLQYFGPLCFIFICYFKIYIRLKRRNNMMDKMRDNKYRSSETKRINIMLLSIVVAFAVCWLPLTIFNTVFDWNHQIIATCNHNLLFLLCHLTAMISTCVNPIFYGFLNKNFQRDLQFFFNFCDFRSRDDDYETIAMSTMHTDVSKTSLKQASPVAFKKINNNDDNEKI

[10] = target: T4, Acyl-homoserine lactone acylase PvdQ (Pseudomonas aeruginosa (strain LESB58), UniProt Q9I194); assay: P. aeruginosa PvdQ acylase inhibitors, dose response, biochemical, fluorescence, plate reader and imaging, cherry-picks (AID 493231)
T4 sequence (Q9I194 whole entry): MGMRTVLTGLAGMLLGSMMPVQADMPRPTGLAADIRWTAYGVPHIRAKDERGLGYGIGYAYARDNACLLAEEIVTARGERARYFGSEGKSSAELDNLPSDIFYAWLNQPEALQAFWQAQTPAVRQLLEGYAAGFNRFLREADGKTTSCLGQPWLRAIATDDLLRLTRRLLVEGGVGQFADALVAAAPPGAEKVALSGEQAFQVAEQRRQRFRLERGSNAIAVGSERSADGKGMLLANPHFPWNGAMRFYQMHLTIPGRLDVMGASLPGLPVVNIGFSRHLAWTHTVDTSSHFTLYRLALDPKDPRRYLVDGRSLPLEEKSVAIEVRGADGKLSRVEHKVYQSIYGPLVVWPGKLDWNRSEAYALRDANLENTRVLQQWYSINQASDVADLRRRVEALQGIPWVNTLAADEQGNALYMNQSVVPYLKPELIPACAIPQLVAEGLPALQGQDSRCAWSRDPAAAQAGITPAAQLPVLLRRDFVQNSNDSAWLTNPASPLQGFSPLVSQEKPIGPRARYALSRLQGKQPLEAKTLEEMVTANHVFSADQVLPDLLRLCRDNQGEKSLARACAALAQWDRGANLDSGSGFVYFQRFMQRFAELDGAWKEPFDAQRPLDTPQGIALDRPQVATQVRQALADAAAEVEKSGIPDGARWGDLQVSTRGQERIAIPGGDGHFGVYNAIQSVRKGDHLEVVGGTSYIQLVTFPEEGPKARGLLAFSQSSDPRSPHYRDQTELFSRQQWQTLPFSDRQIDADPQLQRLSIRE

[11] = Luminescence Cell-Based Dose Confirmation HTS to Identify Activators of 5'UTR Stem-Loop Driven Alpha-Synuclein mRNA Translation in H4 Neuroglioblastoma Cells. [Related pubchem assays: 1829 (Project Summary), 1814 (Primary HTS)]; assay type: functional
[12] = Luminescence Cell-Based Dose Confirmation to Identify Activators of 5'UTR Stem-Loop Driven Alpha-Synuclein mRNA Translation in H4 Neuroglioblastoma Cells. [Related pubchem assays: 1829 (Project Summary), 1814 (Primary HTS)]; assay type: functional
[13] = Luminescence Cell-Based Dose Response to Identify Activators of Luciferase Translation or Activity in H4-C Neuroglioblastoma Cells. [Related pubchem assays: 1829 (Project Summary), 1814 (Primary HTS)]; assay type: functional
[14] = Luminescence Cell-Based Dose Response to Identify Activators of 5'UTR Stem-Loop Driven Prion Protein mRNA Translation in H4-C Neuroglioblastoma Cells. [Related pubchem assays: 1829 (Project Summary), 1814 (Primary HTS)]; assay type: functional
[15] = Luminescence Cell-Based Dose Response HTS to Identify Activators of Luciferase Translation or Activity in H4 […] Cells. [Related pubchem assays: 1829 (Project Summary), 1814 (Primary HTS)]; assay type: functional
[16] = target: T5, Rac GTPase-activating protein 1 (Homo sapiens, UniProt Q9H0H5); assay: MgcRacGAP GTPase-activating activity inhibitors, confirmation, biochemical, ADP Hunter fluorescence, primary and confirmatory (AID 624330); assay type: functional
T5 sequence (Q9H0H5 whole entry): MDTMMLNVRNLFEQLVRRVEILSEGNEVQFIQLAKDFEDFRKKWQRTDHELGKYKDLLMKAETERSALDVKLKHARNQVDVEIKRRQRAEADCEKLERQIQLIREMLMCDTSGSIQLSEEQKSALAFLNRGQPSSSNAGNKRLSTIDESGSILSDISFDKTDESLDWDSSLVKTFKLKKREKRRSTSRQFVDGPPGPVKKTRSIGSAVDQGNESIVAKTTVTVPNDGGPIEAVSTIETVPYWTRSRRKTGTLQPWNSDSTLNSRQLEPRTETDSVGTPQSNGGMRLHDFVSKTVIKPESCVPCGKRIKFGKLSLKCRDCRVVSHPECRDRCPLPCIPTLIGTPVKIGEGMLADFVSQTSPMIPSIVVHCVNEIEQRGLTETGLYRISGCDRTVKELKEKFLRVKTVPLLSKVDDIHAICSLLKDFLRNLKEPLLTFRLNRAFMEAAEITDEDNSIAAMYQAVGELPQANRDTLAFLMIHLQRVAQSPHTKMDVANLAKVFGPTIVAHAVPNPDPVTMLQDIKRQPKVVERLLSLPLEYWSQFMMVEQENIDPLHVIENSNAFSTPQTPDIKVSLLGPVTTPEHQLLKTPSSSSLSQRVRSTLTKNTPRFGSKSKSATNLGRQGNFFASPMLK

[17] = target: Melanin-concentrating hormone receptor 1 (Homo sapiens, UniProt Q99705); assay: Late-stage fluorescence-based counterscreen for antagonists of the G-protein coupled receptor 7 (GPR7): cell-based dose response assay to identify antagonists of the melanin-concentrating hormone receptor 1 (MCHR1). [Related pubchem assays (depositor defined):AID1861, AID1880, AID1952, AID2148, AID2251, AID2257, AID485339]; assay type: functional;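 note: stimulated with 30 nM MCH peptide agonist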
Melanin-concentrating hormone receptor 1, sequence (Q99705 whole entry): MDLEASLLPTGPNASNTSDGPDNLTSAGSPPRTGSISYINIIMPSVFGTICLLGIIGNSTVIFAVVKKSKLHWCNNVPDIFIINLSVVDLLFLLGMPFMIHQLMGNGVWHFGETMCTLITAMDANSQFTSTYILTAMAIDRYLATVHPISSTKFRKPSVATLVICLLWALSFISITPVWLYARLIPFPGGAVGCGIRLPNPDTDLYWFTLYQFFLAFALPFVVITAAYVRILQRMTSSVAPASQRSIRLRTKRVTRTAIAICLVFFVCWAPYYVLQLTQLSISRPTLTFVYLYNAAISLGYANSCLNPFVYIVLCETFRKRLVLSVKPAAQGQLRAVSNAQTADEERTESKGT

[18] = target: T6, Voltage-gated N-type calcium channel alpha-1B subunit/Amyloid beta A4 precursor protein-binding family A member 1 (Homo sapiens, UniProt Q00975+Q02410); assay: disruptors of Mint-PDZ/N-type channel peptide interaction – biochemical, HTRF, SAR follow-up (AID 2489); assay type: functional
[19] = target: T6, Voltage-gated N-type calcium channel alpha-1B subunit/Amyloid beta A4 precursor protein-binding family A member 1; assay: disruptors of Mint-PDZ/N-type channel peptide interaction – biochemical, HTRF, set 2, SAR follow-up (AID 434980); assay type: functional

CCOc1ccccc1NC(=O)c1ccc2nccnc2c1
EC50 [1]: 2.21 µM (active)

COc1ccc(NC(=O)CSc2ccc3c4c(cccc24)C(=O)c2ccccc2-3)cc1
CC50 (Vero): 71.7 µM (active) | EC50 [2]: > 79.4 µM (not active) | EC50 [3]: > 79.4 µM (not active) | EC50 [4]: > 79.4 µM (not active)

O=C(Nc1nc(-c2ccc(F)cc2)cs1)c1cnccn1
IC50 [5]: > 100 µM (active)

C=CCn1c(N)c(C(=O)NCC2CCCO2)c2nc3ccccc3nc21 (stereo not drawn)
EC50 [6]: > 20 µM (not active) | EC50 [7]: > 20 µM (not active)

CC(C)COc1ccc(C(=O)OC2CC(C)(C)OCC2CN(C)C)cc1 (stereo not drawn)
IC50 [8]: 8.01 µM (active) | IC50 [9]: 5.55 µM (active)

Cc1n[nH]c2c1C(c1ccc(-c3ccccc3C#N)o1)C(C#N)=C(N)O2 (stereo not drawn)
EC50 [6]: 7.78 µM (active) | EC50 [7]: 16.3 µM (active)

CC(C)(C)NC(=O)C1N(c2cccnc2)C(=O)C2C(C(=O)Nc3ccccc3F)C3(C)C=CC21O3 (stereo not drawn)
EC50 [6]: > 20 µM (not active) | EC50 [7]: > 20 µM (not active)

O=C(NC1CCCCC1)c1cc(Cl)ccc1[N+](=O)[O-]
AC50 [10]: 69.3 µM (active)

[O-][n+]1onc2c1CCc1nnc(-c3ccccc3)cc1-2
EC50 [1]: 2.83 µM (active)

Cc1cccc(C)c1NC(=S)Nc1c(C)n(C)n(-c2ccccc2)c1=O
EC50 [2]: > 79.4 µM (not active) | EC50 [3]: > 79.4 µM (not active) | EC50 [4]: > 79.4 µM (not active)

COc1ccc(-n2nc(C(=O)Nc3ccc4c(c3)OCO4)c3ccccc3c2=O)cc1
IC50 [8]: 7.17 µM (active) | IC50 [9]: 7.16 µM (active)

CC(C)(C)CC(=O)Nc1nnc(-c2cccs2)s1
EC50 [11]: < 0.1 µM (active) | EC50 [12]: 0.231 µM (active) | EC50 [13]: 0.408 µM (active) | EC50 [14]: 0.335 µM (active) | EC50 [15]: < 0.1 µM (active)

Cc1cc(NC(=O)c2ccc([N+](=O)[O-])cc2Cl)no1
AC50 [10]: > 100 µM (inactive)

CC(C)c1ccc(NC(=O)COc2ccc(C3SCCS3)cc2)cc1
IC50 [5]: > 100 µM (active)

O=C1c2ccccc2C(=O)C1c1ccc(O)cc1
EC50 [2]: > 79.4 µM (not active) | EC50 [3]: > 79.4 µM (not active) | EC50 [4]: > 79.4 µM (not active) | IC50 [16]: 172 µM (active)

COc1ccc(Oc2c(Cl)cnn(-c3cccc(OC)c3)c2=O)cc1
IC50 [17]: 3.4 µM (active)

O=CN(c1ccccc1)c1ccc2ccccc2c1
AC50 [10]: 2.68 µM (active)

COc1ccc(Oc2c(C#N)cnn(-c3ccc(C(C)C)cc3)c2=O)cc1
IC50 [17]: 7.5 µM (active)

O=C(c1cc(-c2ccco2)nc2ccccc12)N1CCCC(c2ccccc2)C1 (stereo not drawn)
IC50 [18]: > 56.8 µM (inactive) | IC50 [19]: > 56.8 µM (inactive)

Cc1cc(O)nc(N/N=C/c2ccc(Br)s2)n1
EC50 [1]: 8.5 µM (active)
